# According to patent US20120214760A1, “TREATMENT OF URINARY TRACT INFECTIONS WITH ANTIBACTERIAL AMINOGLYCOSIDE COMPOUNDS” (Achaogen, Inc., priority 2009, published 2012):
# Like-named read-outs stand apart in the source and are kept apart here.
# Key:
# Format in all cases: cell-based
# [1] = tested on: E. coli ATCC 25922 (AECO001); assay: MIC, CLSI broth microdilution; conditions: for MIC: Escherichia coli; for MIC AECO001: Table 3
# How it was run: (§1)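 MICs were read after 20 hours at 35° C in ambient air, with a final inoculum of 5×10^5 CFU/mL from saline-suspended overnight colonies. Serial two-fold dilutions in Mueller Hinton Broth followed the CLSI reference method (M7-A7), with QC strains E. coli ATCC 25922, P. aeruginosa ATCC 27853 and S. aureus ATCC 29213.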
# [2] = tested on: P. aeruginosa ATCC 27853 (APAE001); assay: MIC, CLSI broth microdilution; conditions: Pseudomonas aeruginosa
# How it was run: as §1
# [3] = tested on: A. calcoaceticus AACA005, AAC(6′)-I; assay: MIC, aminoglycoside resistant strain; conditions: Table 3
# Description: (§2) Minimum inhibitory concentrations (MIC) were determined by reference Clinical and Laboratory Standards Institute (CLSI) broth microdilution methods per M7-A7 [2006]. Quality control ranges utilizing E. coli ATCC 25922, P. aeruginosa ATCC 27853 and S. aureus ATCC 29213, and interpretive criteria for comparator agents were as published in CLSI M100-S17 [2007]. Briefly, serial two-fold dilutions of the test compounds were prepared at 2× concentration in Mueller Hinton Broth. The compound dilutions were mixed in 96-well assay plates in a 1:1 ratio with bacterial inoculum. The inoculum was prepared by suspension of a colony from an agar plate that was prepared the previous day. Bacteria were suspended in sterile saline and added to each assay plate to obtain a final concentration of 5×10^5 CFU/mL. The plates were incubated at 35° C. for 20 hours in ambient air.
# (§3) These MIC assays were conducted following the same protocol as set forth in Example 110. As shown, substituted sisomicin derivatives with groups other than methyl at the 6′-position have improved activity against strains expressing the AAC6′-modifying enzymes.
# [4] = tested on: E. coli AECO040, AAC(6′)-I; assay: MIC, aminoglycoside resistant strain; conditions: Table 3
# Description: as §2, §3
# [5] = tested on: S. marcescens ASMA003, ANT(2″) + AAC(6′); assay: MIC, aminoglycoside resistant strain; conditions: Table 3
# Description: as §2, §3
# [6] = ATCC25922, read-out: MIC AECO001, Table 1, AECO001 is ATCC25922
# [7] = ATCC27853, read-out: MIC APAE001, Table 1, APAE001 is ATCC27853
# [8] = ATCC25922, Table 2, read-out: MIC E. coli
# [9] = Table 1, AECO001 is ATCC25922, read-out: MIC AECO001
# [10] = ATCC27853, Table 2, read-out: MIC P. aeruginosa
Structure (SMILES),"MIC [1, 6]",MIC AECO001 ([1]; ATCC25922),"MIC [2, 7]",MIC AACA005 [3],MIC AECO040 [4],MIC ASMA003 [5],"MIC [1, 8]","MIC [1, 9]","MIC [2, 10]"
"CN[C@@H]1[C@@H](O)[C@@H](O[C@@H]2[C@@H](O)[C@H](O[C@H]3OC(CNCC4CCNCC4)=CC[C@H]3N)[C@@H](N)C[C@H]2NC(=O)[C@@H](O)CCN)OC[C@]1(C)O [Example 12, 6′-(Methyl-piperidin-4-yl)-1-(4-amino-2(S)-hydroxy-butyryl)-sisomicin]",1 to 16 µg/mL,1 µg/mL,1 to 16 µg/mL,2 µg/mL,0.5 µg/mL,4 µg/mL,,,
"CN[C@@H]1[C@@H](O)[C@@H](O[C@@H]2[C@@H](O)[C@H](O[C@H]3OC(CNCC4CC4)=CC[C@H]3N)[C@@H](N)C[C@H]2NC(=O)[C@@H](O)CN)OC[C@]1(C)O [Example 13, 6′-(Methyl-cyclopropyl)-1-(3-amino-2(S)-hydroxy-propionyl)-sisomicin]",1 to 16 µg/mL,1 µg/mL,> 16 µg/mL,2 µg/mL,0.125 µg/mL,2 µg/mL,,,
"CN[C@@H]1[C@@H](O)[C@@H](O[C@@H]2[C@@H](O)[C@H](O[C@H]3OC(CNCCO)=CC[C@H]3N)[C@@H](N)C[C@H]2NC(=O)[C@@H](O)CN)OC[C@]1(C)O [Example 16, 6′-(2-Hydroxy-ethyl)-1-(3-amino-2(S)-hydroxy-propionyl)-sisomicin]",,1 µg/mL,,2 µg/mL,1 µg/mL,2 µg/mL,< 1 µg/mL,< 1 µg/mL,1 to 16 µg/mL
"CN[C@@H]1[C@@H](O)[C@@H](O[C@@H]2[C@@H](O)[C@H](O[C@H]3OC(CNCCCN)=CC[C@H]3N)[C@@H](N)C[C@H]2NC(=O)[C@@H](O)CN)OC[C@]1(C)O [Example 17, 6′-(3-Amino-propyl)-1-(3-amino-2(S)-hydroxy-propionyl)-sisomicin]",,1 µg/mL,,2 µg/mL,0.5 µg/mL,2 µg/mL,< 1 µg/mL,< 1 µg/mL,1 to 16 µg/mL
"CN[C@@H]1[C@@H](O)[C@@H](O[C@@H]2[C@@H](O)[C@H](O[C@H]3OC(CNCC4CC4)=CC[C@H]3N)[C@@H](N)C[C@H]2NC(=O)[C@@H](O)CCN)OC[C@]1(C)O [Example 18, 6′-(Methyl-cyclopropyl)-1-(4-amino-2(S)-hydroxy-butyryl)-sisomicin]",< 1 µg/mL,1 µg/mL,1 to 16 µg/mL,2 µg/mL,0.25 µg/mL,4 µg/mL,,,
"CN[C@@H]1[C@@H](O)[C@@H](O[C@@H]2[C@@H](O)[C@H](O[C@H]3OC(CNCCCN)=CC[C@H]3N)[C@@H](N)C[C@H]2NC(=O)[C@@H](O)CCN)OC[C@]1(C)O [Example 48, 6′-(3-Amino-propyl)-1-(4-amino-2(S)-hydroxy-butyryl)-sisomicin]",< 1 µg/mL,1 µg/mL,1 to 16 µg/mL,2 µg/mL,0.5 µg/mL,2 µg/mL,,,
CNCC1=CC[C@@H](N)[C@@H](O[C@H]2[C@H](O)[C@@H](O[C@H]3OC[C@](C)(O)[C@H](NC)[C@H]3O)[C@H](NC(=O)C3(O)CNC3)C[C@@H]2N)O1 [Example 61],< 1 µg/mL,1 µg/mL,1 to 16 µg/mL,2 µg/mL,16 µg/mL,4 µg/mL,,,
"CN[C@@H]1[C@@H](O)[C@@H](O[C@@H]2[C@@H](O)[C@H](O[C@H]3OC(CN)=CC[C@H]3NCC(O)CN)[C@@H](N)C[C@H]2NC(=O)[C@@H](O)CCN)OC[C@]1(C)O (stereo partly drawn) [Example 101, 2′-(2-Hydroxy-3-amino-propyl)-1-(4-amino-2(S)-hydroxy-butyryl)-sisomicin]",< 1 µg/mL,,1 to 16 µg/mL,,,,,,
"CN[C@@H]1[C@@H](O)[C@@H](O[C@@H]2[C@@H](O)[C@H](O[C@H]3OC(CN)=CC[C@H]3NCCCCN)[C@@H](N)C[C@H]2NC(=O)[C@@H](O)CCN)OC[C@]1(C)O [Example 102, 2′-(4-Amino-butyl)-1-(4-amino-2(S)-hydroxy-butyryl)-sisomicin]",< 1 µg/mL,,1 to 16 µg/mL,,,,,,
"CN[C@@H]1[C@@H](O)[C@@H](O[C@@H]2[C@@H](O)[C@H](O[C@H]3OC(CN)=CC[C@H]3NC(=N)N)[C@@H](N)C[C@H]2NC(=O)[C@@H](O)CCN)OC[C@]1(C)O [Example 103, 2′-Guanidinium-1-(4-amino-2(S)-hydroxy-butyryl)-sisomicin]",,,,,,,< 1 µg/mL,< 1 µg/mL,< 1 µg/mL
"CN[C@@H]1[C@@H](O)[C@@H](O[C@@H]2[C@@H](O)[C@H](O[C@H]3OC(CN)=CC[C@H]3NC[C@H]3C[C@H](N)C3)[C@@H](N)C[C@H]2NC(=O)[C@@H](O)CCN)OC[C@]1(C)O [Example 104, 2′-(Methyl-trans-3-amino-cyclobutyl)-1-(4-amino-2(S)-hydroxy-butyryl)-sisomicin]",< 1 µg/mL,,1 to 16 µg/mL,,,,,,
"CN[C@@H]1[C@@H](O)[C@@H](O[C@@H]2[C@@H](O)[C@H](O[C@H]3OC(CNC(=N)N)=CC[C@H]3NC(=N)N)[C@@H](N)C[C@H]2N)OC[C@]1(C)O [Example 105, 6′,2′-bis-Guanidinium-sisomicin]",> 16 µg/mL,,> 16 µg/mL,,,,,,
"CN[C@@H]1[C@@H](O)[C@@H](O[C@@H]2[C@@H](O)[C@H](O[C@H]3OC(CNCCO)=CC[C@H]3NC(=N)N)[C@@H](N)C[C@H]2N)OC[C@]1(C)O [Example 106, 6′-(2-Hydroxy-ethyl)-2′-guanidinium-sisomicin]",< 1 µg/mL,,1 to 16 µg/mL,,,,,,
"CN[C@@H]1[C@@H](O)[C@@H](O[C@@H]2[C@@H](O)[C@H](O[C@H]3OC(CNC[C@H]4C[C@H](N)C4)=CC[C@H]3NC(=N)N)[C@@H](N)C[C@H]2N)OC[C@]1(C)O [Example 107, 6′-(Methyl-trans-3-amino-cyclobutyl)-2′-guanidinium-sisomicin]",1 to 16 µg/mL,,< 1 µg/mL,,,,,,
"CNCC1=CC[C@@H](NC(=N)N)[C@@H](O[C@H]2[C@H](O)[C@@H](O[C@H]3OC[C@](C)(O)[C@H](NC)[C@H]3O)[C@H](N)C[C@@H]2N)O1 [Example 108, 6′-Methyl-2′-guanidinium-sisomicin]",< 1 µg/mL,,1 to 16 µg/mL,,,,,,
"CNCC1=CC[C@@H](N)[C@@H](O[C@H]2C(O)[C@@H](O[C@H]3OC[C@](C)(O)[C@H](NC)[C@H]3O)[C@H](N)C[C@@H]2N)O1 (stereo partly drawn) [Mono-substituted Compound 1, reference compound]",,1 µg/mL,,2 µg/mL,> 64 µg/mL,1 µg/mL,,,
"CN[C@@H]1[C@@H](O)[C@@H](O[C@@H]2C(O)[C@H](O[C@H]3OC(CNCC4CC4)=CC[C@H]3N)[C@@H](N)C[C@H]2N)OC[C@]1(C)O (stereo partly drawn) [Mono-substituted Compound 2, reference compound]",,1 µg/mL,,4 µg/mL,1 µg/mL,0.5 µg/mL,,,
"CN[C@@H]1[C@@H](O)[C@@H](O[C@@H]2C(O)[C@H](O[C@H]3OC(CNCC4CCNCC4)=CC[C@H]3N)[C@@H](N)C[C@H]2N)OC[C@]1(C)O (stereo partly drawn) [Mono-substituted Compound 3, reference compound]",,0.5 µg/mL,,0.5 µg/mL,0.25 µg/mL,1 µg/mL,,,
"CN[C@@H]1[C@@H](O)[C@@H](O[C@@H]2C(O)[C@H](O[C@H]3OC(CNCCCN)=CC[C@H]3N)[C@@H](N)C[C@H]2N)OC[C@]1(C)O (stereo partly drawn) [Mono-substituted Compound 4, reference compound]",,2 µg/mL,,1 µg/mL,16 µg/mL,1 µg/mL,,,
"CN[C@@H]1C(O)[C@@H](O[C@@H]2[C@@H](O)[C@H](OC3OC(CN)=CC[C@H]3N)[C@@H](N)C[C@H]2NC(=O)[C@@H](O)CN)OC[C@]1(C)O (stereo partly drawn) [Mono-substituted Compound 5, reference compound]",,0.5 µg/mL,,32 µg/mL,8 µg/mL,2 µg/mL,,,
"CN[C@@H]1C(O)[C@@H](O[C@@H]2[C@@H](O)[C@H](OC3OC(CN)=CC[C@H]3N)[C@@H](N)C[C@H]2NC(=O)[C@@H](O)CCN)OC[C@]1(C)O (stereo partly drawn) [Mono-substituted Compound 6, reference compound]",,0.5 µg/mL,,16 µg/mL,4 µg/mL,4 µg/mL,,,
"CN[C@@H]1C(O)[C@@H](O[C@@H]2[C@@H](O)[C@H](OC3OC(CN)=CC[C@H]3N)[C@@H](N)C[C@H]2NC(=O)C2(O)CNC2)OC[C@]1(C)O (stereo partly drawn) [Mono-substituted Compound 7, reference compound]",,1 µg/mL,,32 µg/mL,4 µg/mL,16 µg/mL,,,
"CN[C@@H]1[C@@H](O)[C@@H](O[C@@H]2[C@@H](O)[C@H](O[C@H]3OC(CN)=CC[C@H]3N)[C@@H](N)C[C@H]2N)OC[C@]1(C)O [Sisomicin, reference compound]",,0.5 µg/mL,,32 µg/mL,32 µg/mL,8 µg/mL,,,
